From US20190046600A1, “COMPOSITIONS AND USES THEREOF” (priority 2016, published 2019)
Entries after “also recorded” stand apart in the source; their conditions may differ. Square brackets hold non-standard residues; d marks the D form. Peptide text beside a SMILES is read from it. Phe(4-guanidino) = N=C(N)Nc1ccc(C[C@H](N)C(=O)O)cc1

Assays:
[1] = molecular target: T1, recombinant human caspase 3 (Homo sapiens, UniProt P42574); assay: Apo-ONE Homogeneous Caspase-3/7 assay with recombinant caspase-3; type: biochemical; conditions: 0.1 or 0.3 U enzyme
T1 construct: purchased Enzo Life Sciences BML-SE169-5000
T1 sequence (P42574 29-175 limits assumed): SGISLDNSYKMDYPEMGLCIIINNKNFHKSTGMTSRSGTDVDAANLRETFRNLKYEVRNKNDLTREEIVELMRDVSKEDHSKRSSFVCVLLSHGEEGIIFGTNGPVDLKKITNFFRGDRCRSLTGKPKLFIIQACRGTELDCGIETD
T1 sequence (P42574 176-277 limits assumed): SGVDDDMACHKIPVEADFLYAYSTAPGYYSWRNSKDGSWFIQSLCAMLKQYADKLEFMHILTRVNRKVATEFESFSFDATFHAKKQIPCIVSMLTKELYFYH
Description: DEVD-CHO was used as a positive control.
The Promega kit consists of a buffer that supports caspase 3/7 enzymatic activity and the caspase-3/7 substrate rhodamine 110, bis-(N-CBZL-aspartyl-L-glutamyl-L-valyl-L-aspartic acid amide; Z-DEVD-R110) Z-DEVD-R110 exists as a pro-fluorescent substrate prior to the assay;
upon sequential cleavage and removal of the DEVD peptides by caspase-3/7 activity and excitation at 499 nm, the rhodamine 110 leaving group becomes fluorescent. The amount of fluorescent product generated is reported to be proportional to the amount of caspase-3/7 cleavage that occurs in the sample.
In all subsequent experiments, 0.1 U enzyme was used and plate reader settings were adjusted to read every 5 min for 2h.
The DEVD-CHO control or HILR-030 were co-incubated for 2 hours with substrate or human recombinant caspase-3 according to the protocol in the table below.

[2] = system: Lactate Dehydrogenase A [LDHA]; assay: LDH activity assay on lysates of treated NCI-H460 cells (Abcam ab102526); type: cell-based, human; conditions: NCI-H460 cells treated 24 h or 96 h, normalised to protein; read-out: IC50 for inhibiting the activity of LDH
Description: An LDH activity assay was conducted on samples derived from NCI-H460 cells treated with 2 test compounds (HILR-025 and HILR-030) for either 24h or 96h. […] Therefore a BCA assay was conducted to estimate the total amount of protein present in each LDH assay lysate and this was used to normalise the enzyme activity data. As an indication of cell viability, an Alamar blue assay was also carried out at both timepoints, to serve as an additional point of reference.
2) Cells were harvested and seeded into 96-well plates at either 500 cells/well (for the 96h timepoint) or 5000 cells/well for the 24h timepoint. […] 6) At the end of the assay (24 or 96h), Alamar blue 10% (v/v) was added to one set of plates, incubated for a further 4 hours, and fluorescent product detected using the BMG FLUOstar plate reader. […] 10) LDH activity was measured in the cleared lysates using an LDH activity kit (Abcam, ab102526). 11) After preparation of the LDH activity assay reactions, according to the manufacturer's instructions, absorbance at 450 nm was measured at the initial time to determine (A450)initial 12) Further absorbance readings were taken at 3 minute intervals for up to 15 minutes. […] 16) The LDH activity of each sample was determined by the following equation:
[formula] […] Protein content in remaining cleared lysates was determined using a BCA assay (ThermoScientific). • b. Data were analysed using GraphPad Prism. […]

NCI-H460 cells [3] = conditions: NCI-H460, 96 hours with compound, alamarBlue
Description: Methods measuring cell viability include the use of alamarBlue® cell viability reagent (Life Technologies, Inc.) (resazurin) with fluorescence detection.
1) NCI-H460 cells were grown in Ham's F12 media supplemented with 10% FBS. 2) Cells were harvested and seeded into 96-well plates at 500 cells/well. 3) Compounds were made up from stock solutions and added directly to cells in doubling dilutions starting at 200 μM. Final DMSO concentration was 0.2%. 4) Cells were grown with compound for 96 hours at 37° C. 5% CO2 in a humidified atmosphere. 5) A resazurin dye composition (AlamarBlue® cell viability reagent (Life Technologies, Inc.)) 10% (v/v) was then added and incubated for a further 4 hours, and fluorescent product detected using the BMG FLUOstar plate reader. 6) Media only background readings were subtracted before data were analysed using a 4-parameter logistic equation in GraphPad Prism.

[4] = system: NCI-H460 human non-small cell cancer; assay: In vitro cytotoxicity of Olaparib on NCI-H460, alamarBlue, 96 h; type: cell-based; conditions: 30 nM Olaparib
Description: 2) Cells were harvested and seeded into 96-well plates at 500 cells/well. […] Final DMSO concentration was 0.3%. 4) Cells were grown with compound for 96 hours at 37° C. 5% CO2 in a humidified atmosphere. 5) AlamarBlue® cell viability reagent (Life Technologies, Inc.) 10% (v/v) was then added and incubated for a further 4 hours, and fluorescent product detected using the BMG FLUOstar plate reader. 6) Data were analysed using a 4-parameter logistic equation in GraphPad Prism.

NCI-H460 cells [5] = assay: HILR-001 with or without 30 nM Olaparib on NCI-H460, alamarBlue and CellTiter-Glo time course; type: cell-based, human
Description: At each time point cell viability was measured by two assay readouts, alamarBlue® and CellTiter-Glo. Conversion of alamarBlue® to a fluorescent product serves as a readout of the metabolic activity of cells, whereas CellTiter-Glo is based on quantification of the ATP present.
2) Cells were harvested and seeded into 96-well plates at 500 cells/well. 3) HILR-001 was made up from a 10 mM stock solution and added directly to cells in doubling dilutions starting at 200 μM. […] The total final DMSO concentration was 0.25%. 4) Cells were grown with compound for 24, 48, 72 or 96 hours at 37° C. 5% CO2 in a humidified atmosphere. 5) AlamarBlue® 10% (v/v) was then added and incubated for a further 4 hours, and fluorescent product detected using the BMG FLUOstar plate reader. 6) On duplicate plates the media was removed from the cells, CellTiter-Glo was diluted in PBS (1:10) and 100 μl added to the cells. 7) Plates were mixed on an orbital shaker for 2 minutes and incubated for a further 10 minutes at room temperature. Luminescent signal was then measured using the BMG FLUOstar plate reader.

[6] = 30 nM Olaparib co-incubated with 50 μM HILR-001

Structure (SMILES) | caspase-3 activity [1] | IC50 [2] | IC50 (NCI-H460 cells [3]) | toxicity to NCI-H460 cells [4] | ATP levels (CellTiter-Glo) (NCI-H460 cells [5]; [6]) | HILR-001-mediated cell death (alamarBlue) (NCI-H460 cells [5]; [6]) | ATP levels or cancer cell death (NCI-H460 cells [5]; Olaparib with higher doses of HILR-001 (100 μM and 200 μM))
CC(C)[C@@H]1NC(=O)[C@@H]2CCCN2C(=O)[C@H](CCCNC(=N)N)NC(=O)[C@@H]2CCCN2C(=O)CNC(=O)[C@H](CCCNC(=N)N)NC(=O)[C@@H]2CCCN2C(=O)[C@H](Cc2c[nH]c3ccccc23)NC(=O)[C@H](Cc2c[nH]c3ccccc23)NC(=O)[C@H](Cc2ccc(NC(=N)N)cc2)NC(=O)[C@H](Cc2ccc(NC(=N)N)cc2)NC(=O)[C@H](Cc2c[nH]c3ccccc23)NC(=O)[C@H](Cc2c[nH]c3ccccc23)NC(=O)[C@H](Cc2ccc(NC(=N)N)cc2)NC(=O)[C@H](Cc2ccc(NC(=N)N)cc2)NC(=O)[C@H](Cc2c[nH]c3ccccc23)NC(=O)[C@H](Cc2c[nH]c3ccccc23)NC1=O [HILR-030] (cyclo(PRGPRPVWW[Phe(4-guanidino)][Phe(4-guanidino)]WW[Phe(4-guanidino)][Phe(4-guanidino)]WW)) | inhibited the caspase-3 activity in a dose-dependent fashion | 22 µM | 6 µM |  |  |  | 
O=C(c1cc(Cc2n[nH]c(=O)c3ccccc23)ccc1F)N1CCN(C(=O)C2CC2)CC1 [Olaparib, 4-[3-(4-cyclopropanecarbonylpiperazine-1-carbonyl)-4-fluorobenzyl]-2H-phthalazin-1-one] |  |  |  | non-toxic | partially reverses the HILR-001-induced fall in ATP; also recorded: partially restored ATP levels | reversed 50 μM HILR-001-mediated cell death | did not affect ATP levels or cancer cell death
